# Laboratory results: patent publication US10487058B2, “Cyclopropyl unsaturated quinoline compound used as leukotriene receptor antagonist and applications thereof” (Guangdong Moltech Pharma Co. Ltd, priority 2015, dated 2019)
# How the values were obtained:
# [1] = system: histamine and acetylcholine induced asthma guinea pigs; assay: Anti-asthmatic effect of CS-0090-2 on histamine and acetylcholine induced asthma guinea pigs; format: in vivo, guinea pig
# KM mice = details: oral gavage three times in one day, observed 7 days
# [2] = system: histamine and acetylcholine induced asthma guinea pigs; assay: Anti-asthmatic effect of CS-0090-4 on histamine and acetylcholine induced asthma guinea pigs; format: in vivo, guinea pig
# Description: 0.2 g choline and 0.01 g histamine were weighed and put into beakers respectively, and then respectively each beaker were added with 10 ml distilled water and blended to homogeneity.
# The healthy guinea pigs with body weight of 180 to 220 g were taken and placed in a closed glass bell jar one by one firstly; after the guinea pigs became quiet, an atomization apparatus was started to spray an asthma-induced medical liquid (a solution of 2% acetylcholine chloride and 0.1% histamine phosphate mixed in equal volume) until the guinea pigs tumbled, then the pulverization was stopped, and the asthma latent period (time period from the beginning of pulverization to onset of asthma and dyspnea, till convulsions and tumble) was observed, and qualified animals having a asthma latent period ≤120 s were screened.
# The qualified guinea pigs screened were randomly divided into four groups, which were a high-dosage group, a median-dosage group, a low-dosage group, and a positive control group. The guinea pigs in each group were subjected to oral gavage administration continuously for 7 days with a dosage of 1 ml/100 g. The induced asthma latent period was determined in 1 h after administration on the last day.
# guinea pig asthma models = assay: Anti-asthmatic effect of CS-0090-1 on guinea pig asthma models (histamine/acetylcholine atomization); format: in vivo
# [3] = 3 mg·kg^−1 group, self-control baseline
smiles,measurement,setting,value
CC(C)(O)c1ccccc1CC[C@@H](SCC1(CC(=O)O)CC1)c1cccc(/C=C/c2ccc3ccc(Cl)cc3n2)c1 [Montelukast],Induced asthma latent period (s) within 6 min Before administration,[1]; [3],48.2 ± 4.6 s
same,Induced asthma latent period (s) within 6 min After administration,"[1]; 3 mg·kg^−1 oral gavage 7 days, 1 h after last dose, capped at 360 s",59.8 ± 7.1 s
same,maximum dosage,KM mice,2280 mg/kg
same,Asthma latent period before administration,[2]; [3],48.17 ± 4.62
same,Asthma latent period after administration,"[2]; 3 mg·kg^−1 oral gavage 7 days, 1 h after last dose",59.83 ± 7.08
same,Induced asthma latent period before administration,guinea pig asthma models; [3],48.17 ± 4.62 s
same,Induced asthma latent period after administration,"guinea pig asthma models; 3 mg·kg^−1 oral gavage once a day for 7 days, 1 h after last dose, capped at 6 min",63.00 ± 7.13 s
